Assay results as given in ChEMBL document CHEMBL1201862, “PubChem BioAssay data set” (2004).
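Cells were grown in 96-well plates and exposed to each compound for 48 hours at five concentrations; endpoints were interpolated linearly between bracketing concentrations, or set to the highest concentration if not reached. GI50 = concentration required for 50% inhibition of growth.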 The source made the active and inactive calls. Rule as the data show it: active = GI50 up to about 1.1 µM and inactive = higher.

Columns and labels:
Test in all cases: NCI-60 cell line screen, 48 h
[1] = tested on: RPMI-8226
[2] = tested on: DU-145
[3] = tested on: SF-539
[4] = tested on: SNB-19
[5] = tested on: UO-31
[6] = tested on: MDA-MB-435
[7] = tested on: A498
[8] = tested on: SK-MEL-28
[9] = tested on: HT-29
[10] = tested on: OVCAR-3
[11] = tested on: NCI-H226
[12] = tested on: IGROV-1
[13] = tested on: Malme-3M
[14] = tested on: MOLT-4
[15] = tested on: SW-620
[16] = tested on: KM12
[17] = tested on: 786-0
[18] = tested on: PC-3
[19] = tested on: UACC-257
[20] = tested on: U-251
[21] = tested on: HCT-15
[22] = tested on: SNB-75
[23] = tested on: LOX IMVI
[24] = tested on: HOP-92
[25] = tested on: RXF 393
[26] = tested on: MDA-MB-231
[27] = tested on: BT-549
[28] = tested on: SN12C
[29] = tested on: T47D
[30] = tested on: SK-MEL-5
[31] = tested on: OVCAR-8
[32] = tested on: A549
[33] = tested on: COLO 205
[34] = tested on: M14
[35] = tested on: NCI-H23
[36] = tested on: NCI-H460
[37] = tested on: K562
[38] = tested on: HL-60
[39] = tested on: MCF7
[40] = tested on: NCI/ADR-RES
[41] = tested on: OVCAR-4
[42] = tested on: CCRF-CEM
[43] = tested on: CAKI-1
[44] = tested on: UACC-62
[45] = tested on: Hs-578T
[46] = tested on: HOP-62
[47] = tested on: HCT-116
[48] = tested on: SR
[49] = tested on: SK-OV-3
[50] = tested on: SK-MEL-2
[51] = tested on: SF-268
[52] = tested on: MDA-N
[53] = tested on: TK-10

NS(=O)(=O)c1ccc(NC(=O)c2cc([N+](=O)[O-])cc([N+](=O)[O-])c2)cc1
GI50 [1]: 30.2 µM (inactive)
GI50 [2]: 59.7 µM (inactive)
GI50 [3]: 30.7 µM (inactive)
GI50 [4]: 45.9 µM (inactive)
GI50 [5]: 65.6 µM (inactive)
GI50 [6]: 17.7 µM (inactive)
GI50 [7]: 65.2 µM (inactive)
GI50 [8]: > 100 µM (inactive)
GI50 [9]: 43.1 µM (inactive)
GI50 [10]: 25.8 µM (inactive)
GI50 [11]: 46.5 µM (inactive)
GI50 [12]: 23.6 µM (inactive)
GI50 [13]: 24.8 µM (inactive)
GI50 [14]: 68.9 µM (inactive)
GI50 [15]: 66.4 µM (inactive)
GI50 [16]: 40.4 µM (inactive)
GI50 [17]: 76.2 µM (inactive)
GI50 [18]: 21.1 µM (inactive)
GI50 [19]: 12.8 µM (inactive)
GI50 [20]: 37.8 µM (inactive)
GI50 [21]: 44.3 µM
GI50 [22]: > 100 µM (inactive)
GI50 [23]: 22.8 µM (inactive)
GI50 [24]: 21.7 µM (inactive)
GI50 [25]: > 100 µM (inactive)
GI50 [26]: 39.4 µM (inactive)
GI50 [27]: > 100 µM (inactive)
GI50 [28]: 21.7 µM (inactive)
GI50 [29]: 18.8 µM (inactive)
GI50 [30]: 38.7 µM (inactive)
GI50 [31]: 47.3 µM (inactive)
GI50 [32]: 42.6 µM (inactive)
GI50 [33]: 19.7 µM (inactive)
GI50 [34]: 47.8 µM (inactive)
GI50 [35]: 41.4 µM (inactive)
GI50 [36]: 31.8 µM (inactive)
GI50 [37]: 43.7 µM (inactive)
GI50 [38]: 32.1 µM (inactive)
GI50 [39]: 19.5 µM (inactive)
GI50 [40]: > 100 µM (inactive)
GI50 [41]: 27.7 µM (inactive)
GI50 [42]: 28.8 µM (inactive)
GI50 [43]: > 100 µM (inactive)
GI50 [44]: 15.7 µM (inactive)
GI50 [45]: 76.4 µM (inactive)
GI50 [46]: > 100 µM (inactive)
GI50 [47]: 45 µM (inactive)
GI50 [48]: 63.1 µM (inactive)
GI50 [49]: 80.4 µM (inactive)
GI50 [50]: 34.1 µM (inactive)
GI50 [51]: 32.4 µM (inactive)
GI50 [52]: 21.8 µM (inactive)
GI50 [53]: > 100 µM (inactive)
